Laboratory results reported in the supplement of paper PMC10307832.

Assays:
Assay in all cases: relative viability (nuclei count vs DMSO), 5 days (fraction); higher = more cells survive
Metformin + Lapatinib = compound: CN(C)C(=N)NC(=N)N [Metformin] + CS(=O)(=O)CCNCc1ccc(-c2ccc3ncnc(Nc4ccc(OCc5cccc(F)c5)c(Cl)c4)c3c2)o1 [Lapatinib] (partner 2 µM)
Method in brief: (§1)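 The day after seeding in 1536-well plates, lung cancer cell lines were treated by pin tool with a single drug, or with a fixed anchor-drug dose together with five library-drug doses (not always all listed) in √10 steps. After 5 days, a combined fix-and-stain solution (final 0.05% Triton X-100, 1% formaldehyde, 1 ug/ml Hoechst) was added. Nuclei counted on 4× images gave relative viability as treated counts over vehicle counts, reported as the median of duplicate plates.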

Apatinib + Decitabine = compound: N#CC1(c2ccc(NC(=O)c3cccnc3NCc3ccncc3)cc2)CCCC1 [Apatinib] + Nc1ncn([C@H]2C[C@H](O)[C@@H](CO)O2)c(=O)n1 [Decitabine] (partner 2 µM)
Method in brief: as §1

Metformin + Pemetrexed = compound: CN(C)C(=N)NC(=N)N [Metformin] + Nc1nc2[nH]cc(CCc3ccc(C(=O)N[C@@H](CCC(=O)O)C(=O)O)cc3)c2c(=O)[nH]1 [Pemetrexed] (partner 0.2 µM)
Method in brief: as §1

Apatinib + Pemetrexed = compound: N#CC1(c2ccc(NC(=O)c3cccnc3NCc3ccncc3)cc2)CCCC1 [Apatinib] + Nc1nc2[nH]cc(CCc3ccc(C(=O)N[C@@H](CCC(=O)O)C(=O)O)cc3)c2c(=O)[nH]1 [Pemetrexed] (partner 0.2 µM)
Method in brief: as §1

NCI-H460
relative viability (Metformin + Lapatinib; first compound 31.62 µM): 1.15
relative viability (Metformin + Lapatinib; first compound 100 µM): 0.9
relative viability (Metformin + Lapatinib; first compound 316.23 µM): 0.849
relative viability (Metformin + Lapatinib; first compound 1000 µM): 1.02
relative viability (Apatinib + Decitabine; first compound 0.08 µM): 0.497
relative viability (Apatinib + Decitabine; first compound 0.253 µM): 0.457
relative viability (Apatinib + Decitabine; first compound 0.8 µM): 0.43
relative viability (Apatinib + Decitabine; first compound 2.53 µM): 0.447
relative viability (Apatinib + Decitabine; first compound 8 µM): 0.477
relative viability (Metformin + Pemetrexed; first compound 31.62 µM): 0.0599
relative viability (Metformin + Pemetrexed; first compound 100 µM): 0.0625
relative viability (Metformin + Pemetrexed; first compound 316.23 µM): 0.0535
relative viability (Metformin + Pemetrexed; first compound 1000 µM): 0.0639
relative viability (Apatinib + Pemetrexed; first compound 0.08 µM): 0.0617
relative viability (Apatinib + Pemetrexed; first compound 0.253 µM): 0.0695
relative viability (Apatinib + Pemetrexed; first compound 0.8 µM): 0.0575
relative viability (Apatinib + Pemetrexed; first compound 2.53 µM): 0.0757
relative viability (Apatinib + Pemetrexed; first compound 8 µM): 0.0845
